Like-named read-outs stand apart in the source and are kept apart here.
Tests used:
[1] = system: IIIB strain of HIV-1; assay: Anti-HIV-1 activity: protection of infected MT-2 cells, MTT colorimetric method; type: cell-based; conditions: read-out: EC50
[2] = system: MT-2 human T-cells; assay: Cytotoxicity: inhibition of MT-2 cell growth; type: cell-based
Source text: The preparation of the analogues 4a-h involved the reaction between 2-bromothiazole 1 with the corresponding 5-amino-2-R-phenol 2, followed by reaction with 4-bromo-2-methyl-2-butene in presence of Cs2CO3 as a base (Scheme 1; see Table 1 for antiviral activities (EC50) and cytotoxicities (IC50) of these compounds, as determined using human MT-2 cells infected with IIIB strain of HIV-1).
See, Ruiz-Caro, supra. and Lin, et al., Biochem. Pharmacol. 1994, 47, 171-174.

[3] = Table 1B, for 50% protection in MT-2 cells, triplicate samples, NA for EC50 > CC50
[4] = Table 1B, for 50% inhibition of MT-2 cell growth, triplicate samples
[5] = Homo sapiens, MT2, Table 3, cytotoxicity, MT-2 cells, read-out: IC50
[6] = Table 3, thiazoles 18-23, N/A read as no activity
[7] = Table 3, cytotoxicity, MT-2 cells, read-out: IC50
[8] = Human immunodeficiency virus 1, IIIB, MT2, Table of bicyclic-heteroaryl phenyl amines, MT-2 cell assays
[9] = Homo sapiens, MT2, Table of bicyclic-heteroaryl phenyl amines, cytotoxicity, MT-2 cell assays, read-out: IC50
[10] = Human immunodeficiency virus 1, IIIB, MT2, Table 1a, heteroaryl derivatives, N/A read as no activity
[11] = Homo sapiens, MT2, Table 1a, cytotoxicity, MT-2 cells, read-out: IC50

COc1ncnc(Nc2ccc(Cl)c(OCC=C(C)C)c2)n1 [Compound 7b]
EC50 [1, 3]: 0.031 µM | CC50 [2, 4]: 18 µM

CC1=C(COc2cc(Nc3nccs3)ccc2Cl)CCC1 [Compound 21d, N-(4-Chloro-3-((2-methylcyclopent-1-enyl)methoxy)phenyl)thiazol-2-amine]
IC50 [2, 5]: 2.5 µM

N#Cc1ccc(Nc2nccs2)cc1OC1=CCCC1 [Compound 20h, N-(4-Cyano-3-(cyclopentenyloxy)phenyl)thiazol-2-amine]
IC50 [2, 5]: 1.7 µM

CC(C)=CCOc1cc(Nc2ncnc(Cl)n2)ccc1Cl [Compound 7a]
CC50 [2, 4]: 45 µM

COc1nc(C)nc(Nc2ccc(Cl)c(OCC=C(C)C)c2)n1 [Compound 7g]
EC50 [1, 3]: 0.1 µM | CC50 [2, 4]: 12 µM

CC/C(C)=C\COc1cc(Nc2nccs2)ccc1Cl [Compound 18d, (E/Z)-N-(4-chloro-3-(3-methylpent-2-enyloxy)phenyl)thiazol-2-amine]
EC50 [1, 6]: 1 µM | IC50 [2, 7]: 18 µM

COc1cc(OC)nc(Nc2ccc(C#N)c(OCC=C(C)C)c2)n1 [Compound 10h]
EC50 [1, 3]: 0.16 µM | CC50 [2, 4]: 0.81 µM

CC(C)=CCOc1cc(Nc2nc(C)nc(Cl)n2)ccc1Cl [Compound 7e]
EC50 [1, 3]: 12 µM | CC50 [2, 4]: 40 µM

CCc1ccnc(Nc2ccc(Cl)c(OCC=C(C)C)c2)n1 [Compound 9p]
EC50 [1, 3]: 0.016 µM | CC50 [2, 4]: 0.33 µM

CC(C)=CC(C)Oc1cc(Nc2nccs2)ccc1Cl (stereo not shown) [Compound 19d, N-(4-Chloro-3-(4-methylpent-3-en-2-yloxy)phenyl)thiazol-2-amine]
IC50 [2, 5]: 22 µM

CCOC(=O)c1csc(Nc2ccc(C)c(OCC=C(C)C)c2)n1 [Compound 9b, Ethyl 2-(4-methyl-3-(3-methylbut-2-enyloxy)phenylamino)thiazole-4-carboxylate]
IC50 ([2]; Homo sapiens, MT2): 11 µM

CC(C)=CCOc1cc(Nc2nccc3cc[nH]c23)ccc1Cl [compound 58]
EC50 [1, 8]: 0.9 µM | IC50 [2, 9]: 9.2 µM

CC(C)=CCOc1cc(Nc2nccn3cccc23)ccc1Cl [compound 60]
EC50 [1, 8]: 0.019 µM | IC50 [2, 9]: 20 µM

CC(C)=CCOc1cc(Nc2nccc(N)n2)ccc1Cl [Compound 40d, N^2-(4-Chloro-3-(3-methylbut-2-enyloxy)phenyl)pyrimidin-2,4-diamine]
EC50 [1, 10]: 0.075 µM | IC50 [2, 11]: > 1 µM

CC(C)=CCOc1cc(Nc2nccc3ccccc23)ccc1C#N [isoquinoline 62b]
EC50 ([1]; Table of bicyclic-heteroaryl phenyl amines, MT-2 cell assays): 0.003 µM | IC50 ([2]; Table of bicyclic-heteroaryl phenyl amines, cytotoxicity, MT-2 cell assays, read-out: IC50): 4.4 µM

CNc1ccnc(Nc2ccc(Cl)c(OCC=C(C)C)c2)n1 [Compound 9d]
EC50 [1, 3]: 0.006 µM | CC50 [2, 4]: 0.69 µM

CCOC(=O)c1csc(Nc2ccc(OC)c(OCC=C(C)C)c2)n1 [Compound 9c, Ethyl 2-(4-methoxy-3-(3-methylbut-2-enyloxy)phenylamino)thiazole-4-carboxylate]
IC50 ([2]; Homo sapiens, MT2): 15 µM

Ethyl 2-(4-methyl-3-(3-methylbut-2-enyloxy)phenylamino)thiazole-4-carboxylate [Compound 9b]
EC50 [1, 3]: 0.01 µM | EC50 ([1]; Table 2b, derivatives of pyrimidine 11, NA for EC50 > CC50): 0.01 µM

COc1ccnc(Nc2ccc(Cl)c(Oc3ccccc3C)c2)n1 [Compound 11e]
CC50 ([2]; Table 2b, MT-2 cells): 13 µM

CNc1ccnc(Nc2ccc(C#N)c(OCC=C(C)C)c2)n1 [Compound 10d]
EC50 [1, 3]: 0.005 µM | CC50 [2, 4]: 0.022 µM

CC(C)=CCOc1cc(Nc2ccnc(N)n2)ccc1C [Compound 45b, N^4-(4-Methyl-3-(3-methylbut-2-enyloxy)phenyl)pyrimidin-2,4-diamine]
IC50 [2, 11]: 0.6 µM

CC(C)=CCOc1cc(Nc2ccnc(N)n2)ccc1Cl [Compound 45d, N^4-(4-Chloro-3-(3-methylbut-2-enyloxy)phenyl)pyrimidin-2,4-diamine]
IC50 [2, 11]: 2 µM

COc1ccnc(Nc2ccc(Cl)c(OCC=C(C)C)c2)n1 [Compound 42d, N-(4-Chloro-3-(3-methylbut-2-enyloxy)phenyl)-4-methoxypyrimidin-2-amine]
EC50 [1, 10]: 0.01 µM | IC50 [2, 11]: 9 µM

CCOC(=O)c1csc(Nc2cccc(OCC=C(C)C)c2)n1 [Compound 9a, Ethyl 2-(3-(3-methylbut-2-enyloxy)phenylamino)thiazole-4-carboxylate]
IC50 ([2]; Homo sapiens, MT2): 21 µM

N-(4-Chloro-3-(cyclopentenyloxy)phenyl)thiazol-2-amine [Compound 20d]
EC50 [1, 6]: 5 µM | IC50 [2, 7]: 15 µM
